Test results taken from patent publication US20200405697A1, “Antitumor Agent” (Taiho Pharmaceutical Co., Ltd, priority 2017, published 2020).

The compounds below were run against T1, human RNR (histidine tagged human M1 and human M2 proteins) (Homo sapiens, UniProt P23921) (assay: Human RNR inhibition effect (dCDP formation from CDP)). Conditions: 10 μM CDP, 37° C. for 30 minutes, read-out: RNR inhibitory activity IC50.
T1 construct: made in house; host or cells: Escherichia coli
T1 sequence (P23921 1-792): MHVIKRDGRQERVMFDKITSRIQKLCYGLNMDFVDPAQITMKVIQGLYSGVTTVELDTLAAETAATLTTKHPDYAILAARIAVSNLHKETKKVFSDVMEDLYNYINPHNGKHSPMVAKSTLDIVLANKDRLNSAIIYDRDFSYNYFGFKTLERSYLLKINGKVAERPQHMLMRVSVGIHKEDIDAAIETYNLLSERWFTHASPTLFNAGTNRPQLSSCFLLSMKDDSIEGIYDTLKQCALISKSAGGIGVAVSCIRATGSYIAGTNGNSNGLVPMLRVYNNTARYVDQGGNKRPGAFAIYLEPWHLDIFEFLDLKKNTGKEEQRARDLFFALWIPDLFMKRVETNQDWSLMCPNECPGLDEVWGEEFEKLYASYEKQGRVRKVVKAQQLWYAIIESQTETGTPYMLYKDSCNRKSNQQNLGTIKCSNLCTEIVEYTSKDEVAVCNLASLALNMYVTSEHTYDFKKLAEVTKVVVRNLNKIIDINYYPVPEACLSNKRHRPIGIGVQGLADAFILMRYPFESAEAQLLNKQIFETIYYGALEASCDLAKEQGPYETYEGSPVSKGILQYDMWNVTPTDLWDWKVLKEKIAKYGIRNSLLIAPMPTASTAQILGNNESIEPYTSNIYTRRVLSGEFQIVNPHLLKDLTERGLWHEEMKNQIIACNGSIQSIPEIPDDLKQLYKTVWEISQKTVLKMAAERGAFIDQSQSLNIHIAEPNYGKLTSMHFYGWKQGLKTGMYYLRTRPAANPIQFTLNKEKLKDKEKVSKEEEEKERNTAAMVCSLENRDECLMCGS
Format: biochemical
In short: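 His-tagged human M1 (isoform 1) and N-terminal 59-aa-truncated M2 (isoform 2), E. coli-expressed, Ni-purified, preincubated 20 min with compound (1% DMSO). Reaction with 10 μM CDP, 2 mM ATP, 0.24 mM NADPH, 6 mM DTT, 4 mM Mg acetate, 100 mM KCl, 50 mM HEPES pH 7.2, 30 min at 37° C. dCDP formed quantified by reverse-phase HPLC after heat stop.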

Row | IC50 | Compound
1 | 0.32 µM | Cc1ccc(F)c([C@@H](C)[C@H](NS(=O)(=O)c2ccc3c(c2)CCCO3)c2n[nH]c(=O)o2)c1C [Example 183, N-((1S,2R)-2-(6-fluoro-2,3-dimethylphenyl)-1-(5-oxo-4,5-dihydro-1,3,4-oxadiazol-2-yl)propyl)chroman-6-sulfonamide]
2 | 0.22 µM | Cc1ccc(F)c([C@@H](C)[C@H](NS(=O)(=O)c2ccc3c(c2)N(C)CCC3)c2n[nH]c(=O)o2)c1C [Example 184, N-((1S,2R)-2-(6-fluoro-2,3-dimethylphenyl)-1-(5-oxo-4,5-dihydro-1,3,4-oxadiazol-2-yl)propyl)-1-methyl-1,2,3,4-tetrahydroquinoline-7-sulfonamide]
3 | 0.6 µM | C=C(c1c(F)ccc(C)c1C)[C@H](NS(=O)(=O)c1ccc(Cl)cc1OC)c1n[nH]c(=O)o1 [Example 185, (S)-4-chloro-N-(2-(6-fluoro-2,3-dimethylphenyl)-1-(5-oxo-4,5-dihydro-1,3,4-oxadiazol-2-yl)allyl)-2-methoxybenzensulfonamide]
4 | 0.09 µM | Cc1ccc(F)c([C@@H](C)[C@H](NS(=O)(=O)c2ccc(F)c(C(C)(C)O)c2F)c2n[nH]c(=O)o2)c1C [Example 186, 2,4-difluoro-N-((1S,2R)-2-(6-fluoro-2,3-dimethylphenyl)-1-(5-oxo-4,5-dihydro-1,3,4-oxadiazol-2-yl)propyl)-3-(2-hydroxypropan-2-yl)benzenesulfonamide]
5 | 0.64 µM | C[C@H](c1cccc2c1CCC2)[C@H](NS(=O)(=O)c1ccc(Br)c(C(C)(C)O)c1)c1n[nH]c(=O)o1 [Example 188, 4-bromo-N-((1S,2R)-2-(2,3-dihydro-1H-inden-4-yl)-1-(5-oxo-4,5-dihydro-1,3,4-oxadiazol-2-yl)propyl)-3-(2-hydroxypropan-2-yl)benzenesulfonamide]
6 | 0.55 µM | C[C@H](c1cccc2c1CCC2)[C@H](NS(=O)(=O)c1ccc(F)c(C(C)(C)O)c1F)c1n[nH]c(=O)o1 [Example 189, N-((1S,2R)-2-(2,3-dihydro-1H-inden-4-yl)-1-(5-oxo-4,5-dihydro-1,3,4-oxadiazol-2-yl)propyl)-2,4-difluoro-3-(2-hydroxypropan-2-yl)benzenesulfonamide]
7 | 0.44 µM | C[C@H](c1cccc2c1CCC2)[C@H](NS(=O)(=O)c1ccc(Cl)c(C(C)(C)O)n1)c1n[nH]c(=O)o1 [Example 192, 5-chloro-N-((1S,2R)-2-(2,3-dihydro-1H-inden-4-yl)-1-(5-oxo-4,5-dihydro-1,3,4-oxadiazol-2-yl)propyl)-6-(2-hydroxypropan-2-yl)pyridine-2-sulfonamide]
8 | 0.09 µM | Cc1ccc(F)c([C@@H](C)[C@H](NS(=O)(=O)c2ccc(Cl)c(C(C)(C)O)n2)c2n[nH]c(=O)o2)c1C [Example 193, 5-chloro-N-((1S,2R)-2-(6-fluoro-2,3-dimethylphenyl)-1-(5-oxo-4,5-dihydro-1,3,4-oxadiazol-2-yl)propyl)-6-(2-hydroxypropan-2-yl)pyridine-2-sulfonamide]
9 | 0.36 µM | Cc1ccc(F)c([C@@H](C)[C@H](NS(=O)(=O)c2ccc3c(c2)C(C)(O)CCC3)c2n[nH]c(=O)o2)c1C (stereo partly drawn) [Example 194, N-((1S,2R)-2-(6-fluoro-2,3-dimethylphenyl)-1-(5-oxo-4,5-dihydro-1,3,4-oxadiazol-2-yl)propyl)-8-hydroxy-8-methyl-5,6,7,8-tetrahydronaphthalene-2-sulfonamide]
10 | 0.18 µM | Cc1ccc(F)c([C@@H](C)[C@H](NS(=O)(=O)c2ccc3c(c2)C(C)(O)CCO3)c2n[nH]c(=O)o2)c1C (stereo partly drawn) [Example 195, N-((1S,2R)-2-(6-fluoro-2,3-dimethylphenyl)-1-(5-oxo-4,5-dihydro-1,3,4-oxadiazol-2-yl)propyl)-4-hydroxy-4-methylchroman-6-sulfonamide]
11 | 0.08 µM | Cc1ccc(F)c([C@@H](C)[C@H](NS(=O)(=O)c2cc(C(C)(C)O)c(F)cc2C(N)=O)c2n[nH]c(=O)o2)c1C [Example 196, 5-fluoro-2-(N-((1S,2R)-2-(6-fluoro-2,3-dimethylphenyl)-1-(5-oxo-4,5-dihydro-1,3,4-oxadiazol-2-yl)propyl)sulfamoyl)-4-(2-hydroxypropan-2-yl)benzamide]
12 | 0.06 µM | Cc1ccc(F)c([C@@H](C)[C@H](NS(=O)(=O)c2cc(C(C)(C)O)ccc2C(N)=O)c2n[nH]c(=O)o2)c1C [Example 197, 2-(N-((1S,2R)-2-(6-fluoro-2,3-dimethylphenyl)-1-(5-oxo-4,5-dihydro-1,3,4-oxadiazol-2-yl)propyl)sulfamoyl)-4-(2-hydroxypropan-2-yl)benzamide]
13 | 0.06 µM | Cc1ccc(F)c([C@@H](C)[C@H](NS(=O)(=O)c2cc(C(C)(C)O)c(Cl)cc2C(N)=O)c2n[nH]c(=O)o2)c1C [Example 198, 5-chloro-2-(N-((1S,2R)-2-(6-fluoro-2,3-dimethylphenyl)-1-(5-oxo-4,5-dihydro-1,3,4-oxadiazol-2-yl)propyl)sulfamoyl)-4-(2-hydroxypropan-2-yl)benzamide]
14 | 0.35 µM | CC#CC(O)(C#CC)c1ccc(C(N)=O)c(S(=O)(=O)N[C@H](c2n[nH]c(=O)o2)[C@H](C)c2c(F)ccc(C)c2C)c1 [Example 199]
15 | 0.17 µM | CC(O)c1c(Cl)ccc(S(=O)(=O)N[C@H](c2n[nH]c(=O)o2)[C@H](C)c2cccc3c2CCC3)c1Cl (stereo partly drawn) [Example 201, 2,4-dichloro-N-((1S,2R)-2-(2,3-dihydro-1H-inden-4-yl)-1-(5-oxo-4,5-dihydro-1,3,4-oxadiazol-2-yl)propyl)-3-(1-hydroxyethyl)benzenesulfonamide]
16 | 0.4 µM | CC(O)c1nc(S(=O)(=O)N[C@H](c2n[nH]c(=O)o2)[C@H](C)c2cccc3c2CCC3)ccc1Cl (stereo partly drawn) [Example 202, 5-chloro-N-((1S,2R)-2-(2,3-dihydro-1H-inden-4-yl)-1-(5-oxo-4,5-dihydro-1,3,4-oxadiazol-2-yl)propyl)-6-(1-hydroxyethyl)pyridine-2-sulfonamide]
17 | 0.18 µM | COc1c(S(=O)(=O)N[C@H](c2n[nH]c(=O)o2)[C@H](C)c2cccc(C)c2C)ccc(Cl)c1C(C)O (stereo partly drawn) [Example 203, 4-chloro-N-((1S,2R)-2-(2,3-dimethylphenyl)-1-(5-oxo-4,5-dihydro-1,3,4-oxadiazol-2-yl)propyl)-3-(1-hydroxyethyl)-2-methoxybenzenesulfonamide]
18 | 0.08 µM | COc1c(S(=O)(=O)N[C@H](c2n[nH]c(=O)o2)[C@H](C)c2c(F)ccc3ccccc23)ccc(Cl)c1C(C)O (stereo partly drawn) [Example 205, 4-chloro-N-((1S,2R)-2-(2-fluoronaphthalene-1-yl)-1-(5-oxo-4,5-dihydro-1,3,4-oxadiazol-2-yl)propyl)-3-(1-hydroxyethyl)-2-methoxybenzenesulfonamide]
19 | 0.15 µM | CCc1ccc(F)c([C@@H](C)[C@H](NS(=O)(=O)c2ccc(Cl)c(C(C)O)c2OC)c2n[nH]c(=O)o2)c1C (stereo partly drawn) [Example 206A, 4-chloro-N-((1S,2R)-2-(3-ethyl-6-fluoro-2-methylphenyl)-1-(5-oxo-4,5-dihydro-1,3,4-oxadiazol-2-yl)propyl)-3-(1-hydroxyethyl)-2-methoxybenzenesulfonamide]
20 | 0.18 µM | Cc1ccc(F)c([C@@H](C)[C@H](NS(=O)(=O)c2ccc(Cl)cc2C(=O)O)c2n[nH]c(=O)o2)c1C [Example 210, 5-chloro-2-(N-((1S,2R)-2-(6-fluoro-2,3-dimethylphenyl)-1-(5-oxo-4,5-dihydro-1,3,4-oxadiazol-2-yl)propyl)sulfamoyl)benzoic acid]
21 | 0.12 µM | Cc1ccc(F)c([C@@H](C)[C@H](NS(=O)(=O)c2cccc3c2OCCC3(O)C(F)(F)F)c2n[nH]c(=O)o2)c1C (stereo partly drawn) [Example 211A, N-((1S,2R)-2-(6-fluoro-2,3-dimethylphenyl)-1-(5-oxo-4,5-dihydro-1,3,4-oxadiazol-2-yl)propyl)-4-hydroxy-4-(trifluoromethyl)chroman-8-sulfonamide]
22 | 0.11 µM | COc1c(S(=O)(=O)N[C@H](c2n[nH]c(=O)o2)[C@H](C)c2c(F)ccc(C)c2C)ccc(Cl)c1C(C)(C)O [Example 212, 4-chloro-N-((1S,2R)-2-(6-fluoro-2,3-dimethylphenyl)-1-(5-oxo-4,5-dihydro-1,3,4-oxadiazol-2-yl)propyl)-3-(2-hydroxypropan-2-yl)-2-methoxybenzenesulfonamide]
23 | 0.5 µM | Cc1ccc(F)c([C@@H](C)[C@H](NS(=O)(=O)c2ncc(Cl)cc2C(=O)O)c2n[nH]c(=O)o2)c1C [Example 213, 5-chloro-2-(N-((1S,2R)-2-(6-fluoro-2,3-dimethylphenyl)-1-(5-oxo-4,5-dihydro-1,3,4-oxadiazol-2-yl)propyl)sulfamoyl)nicotinic acid]
